The source of these data is patent US20080274947A1, “Hydroxy-Substituted Diphenylazetidinones for the Treatment of Hyperlipidemia” (SANOFI-AVENTIS DEUTSCHLAND GMBH, priority 2005, published 2008).

For one data set, the system named is serum LDL cholesterol. The data set can be described thus: Hamster model: serum LDL cholesterol reduction on a cholesterol-supplemented diet. The data set is classed as in vivo, Syrian hamsters. Conditions: Mesocricetus auratus, po, once a day by gavage on 12 consecutive days, LDL cholesterol reduction vs placebo-treated controls. Here is the method: Syrian hamsters (in groups of n=5-9) receive a standard diet (ssniff, Soest Germany) supplemented with 0.1% cholesterol.
The test substances are made up in 0.5%/(methylcellulose (Sigma)/5% Solutol (BASF, Ludwigshafen) or another suitable vehicle, and at least three dosages are administered once a day by gavage on 12 consecutive days.
On day 12, the animals are exsanguinated from the aorta under deep anesthesia. The serum is analyzed for total cholesterol, LDL-cholesterol, HDL-cholesterol and triglycerides using standard kits from Roche in accordance with the guidelines of the German Society for Clinical Chemistry.
The ED50 values for LDL cholesterol reduction compared with placebo-treated control animals were calculated using a standard logistic model for the dose-effect plot.

The test system of data set [1] is uptake of 14C-cholesterol in the liver (cholesterol absorption). The data set can be described thus: Cholesterol absorption test: uptake of 14C-cholesterol in the liver after an oral test meal. In kind it is in vivo, NMRI mice. Conditions: mouse, dose which halves (50%) the uptake of 14C-cholesterol in the liver relative to control group. Here is the method:
Influence on Cholesterol Absorption+^3H-Taurocholic Acid Excretion on the Basis of the Fecal Excretion in Mice, Rats or Hamsters
NMRI mice, Wistar rats, or golden Syrian hamsters (in groups of n=4-6) are kept with a standard diet (Altromin, Lage (Lippe)) in metabolism cages. The animals are fasted from the afternoon before administration of the radioactive tracer (^14C-cholesterol) and adapted to wire grids.
In addition, the animals are labeled with ^3H-TCA (taurocholic acid) s.c. 24 hours before the oral administration of the test meal (^14C-cholesterol in Intralipid® 20, Pharmacia-Upjohn) (e.g. 1 μCi/mouse to 5 μCi/rat).
Cholesterol absorption test: 0.25 ml/mouse Intralipid® 20 (Pharmacia-Upjohn) (spiking with 0.25 μCi ^14C-cholesterol in 0.1 mg of cholesterol) is administered orally by gavage.
Test substances are made up separately in 0.5%/(methylcellulose (Sigma)/5% Solutol (BASF, Ludwigshafen) or a suitable vehicle.
The volume for administration of the test substance is 0.5 ml/mouse. The test substance is administered orally immediately before the test meal (Intralipid with ^14C-cholesterol label) (cholesterol absorption test).
Feces are collected for 24 h: the fecal elimination of ^14C-cholesterol and ^3H taurocholic acid (TCA) is determined after 24 h.
The livers are removed, homogenized and combusted in aliquots in an oximate (model 307, Packard) to determine the amount of ^14C-cholesterol taken up/absorbed.
The amount of ^14C-cholesterol taken up in the liver is evaluated in relation to a control group (vehicle-treated) as a function of the dose of the substance administered. The ED50 values are interpolated from a dose-effect plot as the dose which halves (50%) the uptake of ^14C-cholesterol in the liver relative to a control group.

A short description of data set [2]: Liver exposure: substance level in liver homogenate by LC-MS/MS. Conditions: rat, oral, male Wistar rats, 10 mg/kg of body weight, liver dissected after 2 h, read-out: Cmax values in the liver (L). The data set is classed as in vivo. The procedure:
The liver exposure of the compounds of the invention compared with the corresponding compounds without a hydroxyl function in the 2″ position was investigated in vivo in male Wistar rats. A rat anesthetized with ketamine/midazolam (ketamine 80 mg/kg i.p.+midazolam 5 mg/kg i.p.) undergoes laparotomy in the Linea alba, and then the product is administered intraduodenally. During this it is attempted to prevent direct reflux of the product into the stomach. The animals remain under anesthesia throughout the experiment. At the end of the experiment, after 2 h, the liver is dissected out for determination of the substance. The substance levels in the liver homogenates are determined by LC-MS/MS. For this purpose, initially the proteins are precipitated by adding acetonitrile in the presence of an internal standard. Part of the supernatant is mixed with a suitable buffer, and an aliquot of the mixture is injected. The measurement is evaluated via the peak areas of analyte and internal standard.
Cmax values in the liver (L) after oral administration of 10 mg/kg of body weight

Each structure is given as a SMILES string.

`O=C(OCc1ccc([C@@H]2[C@@H](CC[C@H](O)c3ccc(F)cc3)C(=O)N2c2ccc(F)cc2)c(O)c1)N1CCN(S(=O)(=O)O)CC1` [Example A, Ammonium 4-(4-{1-(4-fluorophenyl)-3-[3-(4-fluorophenyl)-3-hydroxypropyl]-4-oxoazetidin-2-yl}-3-hydroxybenzyloxycarbonyl)piperazine-1-sulfamate] returned an ED50 in the data set with serum LDL cholesterol of 0.2 mg/kg. In data set [1], the “ED50 (liver)” value is reported as 0.01 mg/mouse.

`O=C(Oc1ccc([C@@H]2[C@@H](CC[C@H](O)c3ccc(F)cc3)C(=O)N2c2ccc(F)cc2)c(O)c1)N1CCN(S(=O)(=O)O)CC1` [I, Ammonium 4-(4-{1-(4-Fluorophenyl)-3-[3-(4-fluorophenyl)-3-hydroxypropyl]-4-oxoazetidin-2-yl}-3-hydroxyphenoxycarbonyl)piperazine-1-sulfamate] yielded an ED50 in the data set on serum LDL cholesterol below 0.1 mg/kg. Moreover, the “ED50 (liver)” value in data set [1] turned out to be 0.01 mg/mouse.

`COc1ccc([C@@H]2[C@@H](CC[C@H](O)c3ccc(F)cc3)C(=O)N2c2ccc(CNC(=O)CCCCCCCCCCNC(=O)[C@H](O)[C@@H](O)[C@H](O)[C@H](O)CO)cc2)c(O)c1` [Example O, 11-(2,3,4,5,6-Pentahydroxyhexanoylamino)undecanoic acid 4-[3-[3-(4-fluorophenyl)-3-hydroxypropyl]-2-(2-hydroxy-4-methoxyphenyl)-4-oxoazetidin-1-yl]benzylamide]: in data set [1], the “ED50 (liver)” value is reported as below 0.01 mg/mouse.

For the molecule `O=C1[C@H](CC[C@H](O)c2ccc(F)cc2)[C@@H](c2ccc(OCCCOS(=O)(=O)O)cc2O)N1c1ccc(F)cc1` [Example K], the “ED50 (liver)” value in data set [1] is on record as below 0.01 mg/mouse.

For `C[N+]1(C)CCN(C(=O)OCc2ccc([C@@H]3[C@@H](CC[C@H](O)c4ccc(F)cc4)C(=O)N3c3ccc(F)cc3)c(O)c2)CC1.[I-]` [Example C, 4-(4-{1-(4-Fluorophenyl)-3-[3-(4-fluorophenyl)-3-hydroxypropyl]-4-oxoazetidin-2-yl}-3-hydroxybenzyloxycarbonyl)-1,1-dimethylpiperazin-1-ium iodide], in data set [1], the “ED50 (liver)” value is recorded as 0.1 mg/mouse.

With `O=C1C(CC[C@H](O)c2ccc(F)cc2)[C@@H](c2ccc(OCc3ccc(C[N+]45CCN(CC4)CC5)cc3)cc2O)N1c1ccc(F)cc1.[Br-]` (stereo partly shown) [Example N, 1-[4-(4-{1-(4-Fluorophenyl)-3-[3-(4-fluorophenyl)-3-hydroxypropyl]-4-oxoazetidin-2-yl}-3-hydroxyphenoxymethyl)benzyl]-4-aza-1-azoniabicyclo[2.2.2]octane bromide], the “ED50 (liver)” value in data set [1] was 0.01 mg/mouse.

Take `C[n+]1ccn(CCCCOc2ccc([C@@H]3C(CC[C@H](O)c4ccc(F)cc4)C(=O)N3c3ccc(F)cc3)c(O)c2)c1.[I-]` (stereo in doubt) [Example M, 3-[4-(4-{1-(4-Fluorophenyl)-3-[3-(4-fluorophenyl)-3-hydroxypropyl]-4-oxoazetidin-2-yl}-3-hydroxyphenoxy)butyl]-1-methyl-3H-imidazol-1-ium iodide]: in data set [1], the “ED50 (liver)” value is reported as below 0.1 mg/mouse.

Take `N.O=C1[C@H](CC[C@H](O)c2ccc(F)cc2)[C@@H](c2ccc(OCCCOS(=O)(=O)O)cc2)N1c1ccc(F)cc1` [reference compound]: in data set [2], the Cmax (commonly the highest concentration seen after dosing) at 2 h is 24.3 µg/mL.

On to `N.O=C1[C@H](CC[C@H](O)c2ccc(F)cc2)[C@@H](c2ccc(OCCCOS(=O)(=O)O)cc2O)N1c1ccc(F)cc1`, for which the Cmax at 2 h in data set [2] was determined as 0.3 µg/mL.

As to `COc1ccc([C@@H]2[C@@H](CC[C@H](O)c3ccc(F)cc3)C(=O)N2c2ccc(CNC(=O)N3CCN(C(=O)C[N+]45CCN(CC4)CC5)CC3)cc2)c(O)c1.[Cl-]` [Example P, 1-[2-(4-{4-[3-[3-(4-Fluorophenyl)-3-hydroxypropyl]-2-(2-hydroxy-4-methoxyphenyl)-4-oxoazetidin-1-yl]benzylcarbamoyl}piperazin-1-yl)-2-oxoethyl]-4-aza-1-azoniabicyclo[2.2.2]octane chloride], the “ED50 (liver)” value in data set [1] was found to be 0.3 mg/mouse.

On to `O=C1[C@H](CC[C@H](O)c2ccc(F)cc2)[C@@H](c2ccc(OCc3ccc(C[N+]45CCN(CC4)CC5)cc3)cc2)N1c1ccc(F)cc1.[Br-]` [reference compound], for which the Cmax at 2 h in data set [2] worked out at 0.2 µg/mL.

As to `O=C1[C@H](CC[C@H](O)c2ccc(F)cc2)[C@@H](c2ccc(NS(=O)(=O)O)cc2O)N1c1ccc(F)cc1` [Example F, Ammonium (4-[1-(4-fluorophenyl)-3-[3-(4-fluorophenyl)-3-hydroxypropyl]-4-oxoazetidin-2-yl]-3-hydroxyphenyl)sulfamate], in data set [1], the “ED50 (liver)” value was 0.3 mg/mouse.

`O=C1[C@H](CC[C@H](O)c2ccc(F)cc2)[C@@H](c2ccc(OCc3ccc(C[N+]45CCN(CC4)CC5)cc3)cc2O)N1c1ccc(F)cc1.[Br-]`: in data set [2], the Cmax at 2 h is 0.08 µg/mL.

Turning to `O=C1C(CC[C@H](O)c2ccc(F)cc2)[C@@H](c2ccc(CN3CCN(S(=O)(=O)O)CC3)cc2O)N1c1ccc(F)cc1` (stereo partly shown) [Example B, Ammonium 4-(4-{1-(4-Fluorophenyl)-3-[3-(4-fluorophenyl)-3-hydroxypropyl]-4-oxoazetidin-2-yl}-3-hydroxybenzyl)piperazine-1-sulfamate], in data set [1], the “ED50 (liver)” value is below 0.1 mg/mouse.

For `O=C(C[N+]12CCN(CC1)CC2)Nc1ccc([C@@H]2[C@@H](CC[C@H](O)c3ccc(F)cc3)C(=O)N2c2ccc(F)cc2)c(O)c1.[I-]` [H, 1-[(4-{1-(4-Fluorophenyl)-3-[3-(4-fluorophenyl)-3-hydroxypropyl]-4-oxoazetidin-2-yl}-3-hydroxyphenylcarbamoyl)methyl]-4-aza-1-azoniabicyclo[2.2.2]octane iodide], the “ED50 (liver)” value in data set [1] is 0.01 mg/mouse.

Take `O=C(Nc1ccc([C@@H]2[C@@H](CC[C@H](O)c3ccc(F)cc3)C(=O)N2c2ccc(F)cc2)c(O)c1)N1CCN(S(=O)(=O)O)CC1` [Example E, Ammonium 4-(4-{1-(4-fluorophenyl)-3-[3-(4-fluorophenyl)-3-hydroxypropyl]-4-oxoazetidin-2-yl}-3-hydroxyphenylcarbamoyl)piperazine-1-sulfamate]: the ED50 in the data set with serum LDL cholesterol worked out at 0.1 mg/kg. The “ED50 (liver)” value in data set [1] is on record as below 0.01 mg/mouse.
